Laboratory results reported in patent US20230310445A1, “LOX ENZYME INHIBITING METHODS AND COMPOSITIONS” (ANOVIA BIOSCIENCES, INC., priority 2020, published 2023).
pIC50: −log10 of the molar value.

What was measured:
[1] = biological target: T1, Bovine lysyl oxidase (LOX) (Bos taurus, UniProt P33072); test: LOX inhibition assay (fluorometric, cadaverine/Amplex Red/HRP); assay type: biochemical; conditions: IC50 class; bovine tendon LOX, cadaverine substrate; read-out: Activity Range LOX
T1 construct: from tissue; host or cells: adult bovine tendon
T1 sequence (P33072 170-418): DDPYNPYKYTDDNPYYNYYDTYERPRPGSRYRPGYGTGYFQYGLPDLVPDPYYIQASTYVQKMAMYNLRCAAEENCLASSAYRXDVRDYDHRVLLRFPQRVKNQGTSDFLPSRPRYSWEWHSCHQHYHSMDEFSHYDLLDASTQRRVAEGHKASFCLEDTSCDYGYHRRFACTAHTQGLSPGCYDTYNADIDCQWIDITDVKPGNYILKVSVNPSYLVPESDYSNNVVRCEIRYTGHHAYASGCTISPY
Description: (§1) The ability of compounds to inhibit prototypic LOX was determined using a fluorometric assay. This assay measures the activity of lysyl oxidases by coupling the reaction with horseradish peroxidase-catalyzed […]. The activity assay protocol uses cadaverine as substrate that releases hydrogen peroxide upon transformation by prototypic LOX enzyme present in the sample. Hydrogen peroxide is in turn detected using a red fluorescence substrate for HRP-coupled reactions (Amplex Red Enzyme Assays, Thermo Scientific Fisher). This leads to increase in fluorescence that can be easily detected at Ex/Em=540/590 nm in a fluorescence microplate reader.
Enzyme: Bovine lysyl oxidase (LOX) was extracted by adapting the methodology from [Kagan et al. 1979 and Borel et al. 2001.] from bovine tendon: Frozen adult bovine tendon was placed in room temperature water to defrost, and then membranes were removed and the remaining tissue cut into 1 cm pieces. The material was first passed through a course mesh meat grinder, and this mince was passed through a fine mesh grinder. The mince was homogenized in 10 v/w of buffer (16 mM sodium phosphate buffer pH 7.8, 400 mM NaCl) using a Waring blender. The homogenate was centrifuged at 15,000×g for 15 min at 4° C. After centrifugation, the supernatant was discarded and the pellets resuspended in 10 volumes of the same buffer. The mixture was blended again and centrifuged with the same settings. This time the pellets were blended in 3 volumes of extraction buffer (16 mM sodium phosphate buffer pH 7.8) and left to incubate at 4° C. for 2 h. After this time, the slurry was centrifuged with the same settings as described above. The supernatant was used in an ultrafiltration step to remove large proteins by size exclusion through a 30 kDalton filter (EMD Millipore). The filtrate was mixed with DEAE Sephadex (GE Healthcare), or passed over a MonoQ FPLC column. After two washes, one in 16 mM sodium phosphate buffer pH 7.8, 380 mM NaCl, and another in 16 mM sodium phosphate buffer pH 7.8, the proteins were eluted with 16 mM sodium phosphate pH 7.8, 10 μM CuSO4, and 4 M urea. Fractions containing Lox activity were collected and stored frozen at −70° C.
Reaction: Final concentration in the LOX assay was as following and performed in a total volume of […]:
Experimental procedure: 7 μl of freshly prepared reaction buffer were delivered to reaction wells. Compounds were resuspended in 100% DMSO at 10 mM and delivered into buffer using acoustic technology (Echo550; nanoliter range). A 2.85× solution of LOX protein in reaction buffer was prepared (“LOX solution”) and 7 μl of LOX solution was added into the reaction wells. Buffer only was added to column 1 for no protein control. Reactions were incubated for 30 minutes at 37° C. A 3.33× mixture of cadaverine, Amplex Red, and HRP (“Substrate/Detection Mix) was prepared and subsequently 6 μL of the mixture was added to each reaction well. Progress of reactions was monitored for 120 minutes at 37° C. using Clariostar plate reader (ex530-12, ems 600-40). For all activity assays, pan-LOX inhibitor CCT365623 (Tang et al, 2017) and LOXL2/LOXL3 inhibitor PAT-1251 (PharmaKea) were included as standards.
Data analysis: Slope of the linear portion of the progress curve was calculated using Clariostar software. Typical analysis interval was between 20-50 min, but varied between experiments. The background subtracted signals (No protein wells were considered as background) were converted to % activity relative to DMSO controls. Data was analyzed using GraphPad Prism 4 with “sigmoidal dose-response (variable slope)”; 4 parameters with Hill Slope. Constraints: Bottom=Constant equal to 0. Top=Must be less than 120.

[2] = biological target: T2, Recombinant human LOXL2 (lysyl oxidase like 2) (Homo sapiens, UniProt Q9Y4K0); test: LOXL2 inhibition assay (fluorometric, cadaverine/Amplex Red/HRP); assay type: biochemical; conditions: IC50 class; recombinant human LOXL2, cadaverine substrate; read-out: Activity Range LOXL2
T2 construct: purchased R&D systems
T2 sequence (Q9Y4K0 26-774): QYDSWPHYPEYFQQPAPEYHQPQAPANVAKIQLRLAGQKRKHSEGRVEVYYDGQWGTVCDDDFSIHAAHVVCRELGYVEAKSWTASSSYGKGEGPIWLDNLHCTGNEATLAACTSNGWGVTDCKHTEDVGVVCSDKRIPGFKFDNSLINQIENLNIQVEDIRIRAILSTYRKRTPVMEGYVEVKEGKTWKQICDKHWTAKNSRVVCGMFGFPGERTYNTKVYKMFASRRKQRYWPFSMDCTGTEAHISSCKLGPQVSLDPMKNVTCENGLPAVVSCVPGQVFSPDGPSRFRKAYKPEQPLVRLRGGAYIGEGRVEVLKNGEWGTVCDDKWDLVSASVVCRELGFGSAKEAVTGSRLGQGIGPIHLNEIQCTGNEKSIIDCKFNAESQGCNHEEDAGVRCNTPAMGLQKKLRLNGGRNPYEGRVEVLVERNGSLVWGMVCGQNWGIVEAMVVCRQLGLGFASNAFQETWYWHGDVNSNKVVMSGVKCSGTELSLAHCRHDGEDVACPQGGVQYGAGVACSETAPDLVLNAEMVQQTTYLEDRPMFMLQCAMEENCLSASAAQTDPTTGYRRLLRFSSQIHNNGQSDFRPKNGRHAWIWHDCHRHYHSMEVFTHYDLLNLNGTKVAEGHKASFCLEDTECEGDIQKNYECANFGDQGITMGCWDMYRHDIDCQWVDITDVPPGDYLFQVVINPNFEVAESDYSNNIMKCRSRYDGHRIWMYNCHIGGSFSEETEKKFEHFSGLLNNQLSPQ
Description: as §1, with “inhibit one or more of the lysyl oxidases LOXL2 and/or LOXL3” for “inhibit prototypic LOX”, “by the specific” for “by prototypic”, “LOX family” for “LOX”
Enzymes: Recombinant human LOXL2 (lysyl oxidase like 2) and recombinant human LOXL3 (lysyl oxidase like 3) were purchased from R&D systems and assays were performed in 1.2 M urea, 50 mM sodium borate buffer pH 8.0, and 10 mM CaCl.
Reaction: Final concentration in the LOXL2 and LOXL3 assays were as following and performed in a total volume of […]:
Experimental procedure: 5 μl of freshly prepared reaction buffer were delivered to reaction wells. Compounds were resuspended in 100% DMSO at 10 mM and delivered into buffer using acoustic technology (Echo550; nanoliter range). A 3× solution of LOXL2 or LOXL3 in reaction buffer was prepared (“enzyme solution”) and 5 μL of enzyme solution was added into the reaction wells. Buffer only was added to column 1 for no protein control. Reactions were incubated for 30 minutes at 37° C. A 3×mixture of cadaverine, Amplex Red, and HRP (“Substrate/Detection Mix) was prepared and subsequently 5 μL of the mixture added to each reaction well. Progress of reactions was monitored for 60 minutes at 37° C. using Clariostar plate reader (ex 530-12, ems 600-40). For all activity assays, pan-LOX inhibitor CCT365623 (Tang et al, 2017) and LOXL2/LOXL3 inhibitor PAT-1251 (PharmaKea) were included as standards.
Data analysis: Slope of the linear portion of the progress curve was calculated using Clariostar software. Typical analysis interval was between 8-30 min, but varied between experiments. The background subtracted signals (No protein wells are considered as background) were converted to % activity relative to DMSO controls. Data was analyzed using GraphPad Prism 4 with “sigmoidal dose-response (variable slope)”; 4 parameters with Hill Slope. Constraints: Bottom=Constant equal to 0. Top=Must be less than 120.

pIC50 [1] | pIC50 [2] | Structure (SMILES)
< 4.52 | < 4.52 | CC(N)c1cccc(S(=O)(=O)N2C[C@H](C(=O)N3CCOCC3)C[C@@H](c3ccccc3)C2)c1 (mixture of isomers) [Example 102TR, trans-(1-((3-(1-Aminoethyl)phenyl)sulfonyl)-5-phenylpiperidin-3-yl)(morpholino)methanone 2,2,2-trifluoroacetate]
< 4.52 | < 4.52 | CC(N)c1cccc(S(=O)(=O)N2C[C@H](C(=O)N3CCS(=O)(=O)CC3)C[C@@H](c3ccccc3)C2)c1 (mixture of isomers) [Example 106, trans-(1-((3-(1-Aminoethyl)phenyl)sulfonyl)-5-phenylpiperidin-3-yl) (1,1-dioxidothiomorpholino)methanone 2,2,2-trifluoroacetate]
< 4.52 | 4.52 to 6.00 | NCc1cccc(S(=O)(=O)N2C[C@H](C(=O)N3CCOCC3)C[C@@H](C(F)(F)F)C2)c1 (racemic) [Example 110]
< 4.52 | 6.00 to 6.30 | NCc1cnc(S(=O)(=O)N2C[C@@H](C(=O)N3CCOCC3)C[C@@H](c3ccccc3)C2)s1 (racemic) [Example 111, cis-(1-((5-(Aminomethyl)thiazol-2-yl)sulfonyl)-5-phenylpiperidin-3-yl)(morpholino)methanone 2,2,2-trifluoroacetate]
4.52 to 6.00 | ≥ 6.30 | NCc1cnc(S(=O)(=O)N2C[C@@H](C(=O)N3CCS(=O)(=O)CC3)C[C@@H](c3ccccc3)C2)s1 (racemic) [Example 112, cis-(1-((5-(Aminomethyl)thiazol-2-yl)sulfonyl)-5-phenylpiperidin-3-yl)(1,1-dioxidothiomorpholino)methanone 2,2,2-trifluoroacetate]
4.52 to 6.00 | 6.00 to 6.30 | NCc1cnc(S(=O)(=O)N2C[C@H](C(=O)N3CCS(=O)(=O)CC3)C[C@@H](c3ccccc3)C2)s1 (racemic) [Example 112T, trans-(1-((5-(Aminomethyl)thiazol-2-yl)sulfonyl)-5-phenylpiperidin-3-yl)(1,1-dioxidothiomorpholino)methanone 2,2,2-trifluoroacetate]
4.52 to 6.00 | ≥ 6.30 | CS(=O)(=O)N1CCN(C(=O)[C@H]2C[C@@H](c3ccccc3)CN(S(=O)(=O)c3ncc(CN)s3)C2)CC1 (racemic) [Example 113, cis-(1-((5-(Aminomethyl)thiazol-2-yl)sulfonyl)-5-phenylpiperidin-3-yl)(4-(methylsulfonyl)piperazin-1-yl)methanone 2,2,2-trifluoroacetate]
4.52 to 6.00 | ≥ 6.30 | CS(=O)(=O)N1CCN(C(=O)[C@@H]2C[C@@H](c3ccccc3)CN(S(=O)(=O)c3ncc(CN)s3)C2)CC1 (racemic) [Example 113T, trans-(1-((5-(Aminomethyl)thiazol-2-yl)sulfonyl)-5-phenylpiperidin-3-yl)(4-(methylsulfonyl)piperazin-1-yl)methanone 2,2,2-trifluoroacetate]
< 4.52 | 4.52 to 6.00 | CS(=O)(=O)N1CCN(C(=O)[C@@H]2C[C@@H](c3ccccc3)CN(S(=O)(=O)c3cccc(CN)n3)C2)CC1 (racemic) [Example 116T, trans-(1-((6-(Aminomethyl)pyridin-2-yl)sulfonyl)-5-phenylpiperidin-3-yl)(4-(methylsulfonyl)piperazin-1-yl)methanone 2,2,2-trifluoroacetate]
< 4.52 | 4.52 to 6.00 | CS(=O)(=O)N1CCN(C(=O)[C@H]2C[C@@H](c3ccccc3)CN(S(=O)(=O)c3cccc(CN)n3)C2)CC1 (racemic) [Example 116]
≥ 6.30 | ≥ 6.30 | NCc1ccc(S(=O)(=O)N2C[C@@H](C(=O)N3CCS(=O)(=O)CC3)C[C@@H](C3CCCCC3)C2)s1 (racemic) [Example 121, cis-(1-((5-(Aminomethyl)thiophen-2-yl)sulfonyl)-5-cyclohexylpiperidin-3-yl)(1,1-dioxidothiomorpholino)methanone 2,2,2-trifluoroacetate]
4.52 to 6.00 | 6.00 to 6.30 | NCc1cc(S(=O)(=O)N2C[C@@H](C(=O)N3CCS(=O)(=O)CC3)C[C@@H](c3ccccc3)C2)ccn1 (racemic) [Example 130, cis-(1-((2-(Aminomethyl)pyridin-4-yl)sulfonyl)-5-phenylpiperidin-3-yl)(1,1-dioxidothiomorpholino)methanone 2,2,2-trifluoroacetate]
